pIC50: −log10 of the molar value.
Assays:
[1] = test system: NCI/ADR-RES; experiment: Compound was tested in vitro for cytotoxicity against MCF-7ADR, human breast cancer cells (taxol-resistant) at a drug concentration producing 50% inhibition of colony formation; assay type: functional; conditions: read-out: ID50 (the source's name)
[2] = organism: Mus musculus; experiment: The tumor growth value was reported as ratio of surviving days of mice treated with anticancer drug to surviving days of control mice; assay type: functional
[3] = test system: PC-3; experiment: Compound was tested in vitro for cytotoxicity against PC-3, human prostate cancer cells (taxol-sensitive) at a drug concentration producing 50% inhibition of colony formation; assay type: functional; conditions: read-out: ID50 (the source's name)
[4] = test system: Mus musculus; experiment: Compound was tested in vivo for antitumor activity, reported as maximum tolerated dose (MTD) in mice injected intraperitoneally with drug
[5] = test system: HCT-116/VM46; experiment: Compound was tested in vitro for cytotoxicity against VM46 subline of HCT116 (taxol-resistant) at a drug concentration producing 50% inhibition of colony formation; conditions: Homo sapiens, read-out: ID50 (the source's name)
[6] = test system: Mus musculus; experiment: Compound was tested in vivo for antitumor activity, reported as non toxic dose (NTD) in mice injected intraperitoneally with drug
[7] = test system: HCT-116; experiment: Compound was tested in vitro for cytotoxicity against HCT116, human colon cancer cells (taxol-sensitive) at a drug concentration producing 50% inhibition of colony formation; conditions: read-out: ID50 (the source's name)

Structure (SMILES): CC(=O)O[C@H]1C(=O)[C@@]2(C)[C@H]([C@H](OC(=O)c3ccccc3)[C@]3(O)C[C@H](OC(=O)[C@H](O)[C@@H](NC(=O)c4ccccc4)c4ccccc4)C(C)=C1C3(C)C)[C@]1(OC(C)=O)CO[C@@H]1C[C@@H]2O [PACLITAXEL]
- pIC50 [1]: < 5.00
- T/C [2]: 150%
- pIC50 [3]: 8.40
- MTD [4]: 40.6 mg/kg
- pIC50 [5]: < 7.30

Structure (SMILES): CC[C@@]1(OC(=O)COc2ccc([N+](=O)[O-])cc2)C(=O)OCc2c1cc1n(c2=O)Cc2cc3ccccc3nc2-1
- pIC50 [1]: 8.15
- T/C [2]: 250%
- pIC50 [3]: 8.32
- NTD [6]: 100 mg/kg
- pIC50 [5]: 8.52
- pIC50 [7]: 8.48

Structure (SMILES): CC[C@@]1(OC(=O)COc2ccc3c(c2)OCO3)C(=O)OCc2c1cc1n(c2=O)Cc2cc3ccccc3nc2-1
- pIC50 [1]: 8.30
- T/C [2]: 200%
- pIC50 [3]: 8.34
- NTD [6]: 45 mg/kg
- pIC50 [5]: 8.62
- pIC50 [7]: 8.51

Structure (SMILES): CC[C@@]1(OC(=O)COc2ccc(Cl)cc2C)C(=O)OCc2c1cc1n(c2=O)Cc2cc3ccccc3nc2-1
- pIC50 [1]: 8.37
- T/C [2]: 217%
- pIC50 [3]: 8.46
- NTD [6]: 150 mg/kg
- pIC50 [5]: 9.05
- pIC50 [7]: 8.57

Structure (SMILES): CC[C@@]1(OC(=O)CCOc2ccccc2)C(=O)OCc2c1cc1n(c2=O)Cc2cc3ccccc3nc2-1
- pIC50 [1]: 7.55
- T/C [2]: 133%
- NTD [6]: 150 mg/kg
- pIC50 [5]: 8.15
- pIC50 [7]: 8.10

Structure (SMILES): CC[C@@]1(OC(=O)COc2ccc3c(C)c(Cl)c(=O)oc3c2)C(=O)OCc2c1cc1n(c2=O)Cc2cc3ccccc3nc2-1
- pIC50 [1]: 8.28
- T/C [2]: 200%
- pIC50 [3]: 8.52
- NTD [6]: 75 mg/kg
- pIC50 [5]: 9.15
- pIC50 [7]: 8.46

Structure (SMILES): CC[C@@]1(OC(=O)COc2ccc(Br)cc2)C(=O)OCc2c1cc1n(c2=O)Cc2cc3ccccc3nc2-1
- pIC50 [1]: 8.26
- T/C [2]: 300%
- pIC50 [3]: 8.49
- NTD [6]: 150 mg/kg
- pIC50 [5]: 8.72
- pIC50 [7]: 8.52

Structure (SMILES): CC[C@@]1(OC(=O)CCCOc2ccc(Cl)cc2Cl)C(=O)OCc2c1cc1n(c2=O)Cc2cc3ccccc3nc2-1
- pIC50 [1]: 7.05
- T/C [2]: 250%
- NTD [6]: 100 mg/kg
- pIC50 [5]: 7.57
- pIC50 [7]: 7.41

Structure (SMILES): CC[C@@]1(O)C(=O)OCc2c1cc1n(c2=O)Cc2cc3ccccc3nc2-1 [CAMPTOTHECIN]
- pIC50 [1]: 8.41
- T/C [2]: 183%
- pIC50 [3]: 8.42
- MTD [4]: 12 mg/kg
- pIC50 [5]: 8.62
- pIC50 [7]: 8.55

Structure (SMILES): CC[C@@]1(OC(=O)CCCCOc2ccc(F)cc2Br)C(=O)OCc2c1cc1n(c2=O)Cc2cc3ccccc3nc2-1
- pIC50 [1]: < 7.00
- NTD [6]: 150 mg/kg
- pIC50 [5]: 7.03
- pIC50 [7]: < 7.00

Structure (SMILES): CC[C@@]1(OC(=O)COc2ccc3ccccc3c2)C(=O)OCc2c1cc1n(c2=O)Cc2cc3ccccc3nc2-1
- pIC50 [1]: 8.39
- T/C [2]: 117%
- pIC50 [3]: 8.41
- NTD [6]: 150 mg/kg
- pIC50 [5]: 8.74
- pIC50 [7]: 8.52

Structure (SMILES): CC[C@@]1(OC(=O)CO[C@@H]2C[C@H](C)CC[C@H]2C(C)C)C(=O)OCc2c1cc1n(c2=O)Cc2cc3ccccc3nc2-1
- pIC50 [1]: 8.14
- T/C [2]: 200%
- pIC50 [3]: 8.21
- NTD [6]: 100 mg/kg
- pIC50 [5]: 8.60
- pIC50 [7]: 8.44

Structure (SMILES): CCc1c2c(nc3ccc(OC(=O)N4CCC(N5CCCCC5)CC4)cc13)-c1cc3c(c(=O)n1C2)COC(=O)[C@]3(O)CC [IRINOTECAN]
- pIC50 [1]: < 6.30
- T/C [2]: 217%
- MTD [4]: 200 mg/kg
- pIC50 [5]: 6.66
- pIC50 [7]: 6.27

Reference: ChEMBL document CHEMBL1135295, “Novel camptothecin derivatives. Part 1: oxyalkanoic acid esters of camptothecin and their in vitro and in vivo antitumor activity” (2002)
